The source of these data is patent US8629132B2, “Kinase inhibitors” (Genosco, priority 2009, dated 2014).

Test [1] concerns TNF-α release in THP-1 cells. Kind of test: SYK dependent TNF-α release assay (IgG stimulation). To be noted: for inhibition at 0.3 µM / inhibition at 1 µM: Homo sapiens; for percentage inhibition of TNF-α release compared with R406: IgG stimulated release. The format is cell-based, human. As for the experimental part:
(§1) Compounds of the present invention are tested for their effects on TNF-α release in human acute monocytic leukimia cell line (THP-1) to illustrate potential efficacy at the cellular level. TNF-α is a cytokine involved in systemic inflammation and is a member of a group of cytokines that stimulate the acute phase reaction. The primary role of TNF-α is in the regulation of immune cells. TNF-α is known to induce apoptotic cell death and inflammation and to inhibit early tumorigenesis and viral replication. Dysregulation and, in particular, overproduction of TNF-α have been implicated in a variety of human diseases, autoimmune disease, inflammation, arthritis and cancer.
(§2) Production or release of TNF-α is controlled by type of stimulus to which the cell responds. SYK activity is involved in mediating TNF-α production. When stimulated by IgG, cells increase TNF-α production in a SYK dependent manner (i.e., the SYK dependent pathway). However, when stimulated by lipopolysaccharide (LPS), they produce TNF-α in a SYK independent manner.
Compounds of the invention were tested for their TNF-α release effect on THP-1 cells. For SYK dependent TNF-α release assay (i.e., via IgG stimulation), THP-1 cells derived from human monocytic cells were obtained from the American Type Culture Collection (ATCC, Manassas, Va.). This cell line was maintained with an Roswell Park Memorial Institute (RPMI) medium (GIBCO™) containing 10 fetal bovine serum (FBS; GIBCO™) and 0.05 mM 2-mercaptoethanol. The THP-1 cells were seeded at 1×10^5 cells/100 μL/well into human IgG (10 μg/well, INVITROGENT™)-coated 96 well culture plate, and serially diluted compound was then added. After an 18-hour incubation period at 37° C., supernatants were collected for the determination of the TNF-α level by enzyme-linked immunosorbent assay (ELISA), and the remaining cells were subjected to an MTT (yellow tetrazolium salt) assay to determine the cytotoxic effects of compound.

Test [2] addresses JAK2 (Homo sapiens, UniProt O60674). Kind of test: Kinase inhibition assay: JAK2. The class given is biochemical. On the set-up: truncated human FAK, RET, FLT3, JAK2, and LRRK2; purchased Carna Biosciences. As for the experimental part:
(§3) Compounds of the present invention were tested for their capacity to inhibit a kinase panel which includes, but are not limited to, spleen tyrosine kinase (SYK), zeta-chain-associated protein kinase 70 (ZAP70), PTK2B protein tyrosine kinase 2 (PYK2), focal adhesion kinase (FAK), provirus integration of maloney kinase 1 (PIM1), rearranged during transfection kinase (RET), Fms-like tyrosine kinase 3 (FLT3), Janus kinase 2 (JAK2), and leucine-rich repeat kinase 2 (LRRK2).
(§4) Inhibition of SYK, ZAP70, PYK2, FAK, PIM1, RET, FLT3, JAK2 and LRRK2 Kinase Activity
(§5) Compounds of the invention were initially diluted to 10 mM in 100% DMSO (CALBIOCHEM™) for storage and made into kinase buffer solution to create a compound concentration ranging from 1 uM and 10 uM. Serial dilutions of compounds of the invention were dispensed into a 96-well plate (GREINER BIOSCIENCES™) at 6 μL each. Purified full-length human SYK, ZAP70, PIM1, PYK2 and truncated human FAK, RET, FLT3, JAK2, and LRRK2 (CARNA BIOSCIENCES™) were diluted in kinase buffer and added to the compound solutions and pre-incubated for 30 minutes at room temperature (1 hour for PYK2). […] The reaction mixture was incubated for 1 hour (2 hours for PYK2). Following the incubation, the stop solution made with EDTA, water, and Lance detection buffer ([…]™) was added (12μL each) to stop phosphorylation. […] The IC50 value of test compound was calculated at Gradpad Prism 5 unless specified otherwise.

Test [3] has as its system MV4-11 cells. Kind of test: Cell viability assay: FLT3-ITD-positive cells. The format is cell-based, human. The note with it: for IC50: Homo sapiens, MV4-11, 72-hour incubation, read-out: Viability of FLT3-ITD Induced Cancer Cell Line MV-4-11 (IC50 nM). The method, then: Compounds of the invention were tested for their effects on inhibition of FLT3-ITD in human acute leukemia cell line (MV4-11). FLT3 is primarily expressed in immature hematopoietic progenitor as well as in mature myeloid cells. It belongs to type III receptor tyrosine kinase (RTK) family including KIT, FMS, and PDGFR. It is activated by binding to FL, which leads to increased kinase activity and activation of downstream signaling pathway including STATS, Ras, and PI3Kinase.
Compounds of the invention were tested for cell viability effect on MV4-11 cells. For cell viability assay, MV4-11 cells expressing human FLT3-ITD were obtained from the American Type Culture Collection (ATCC, Manassas, Va.). This cell line was maintained with an Roswell Park Memorial Institute (RPMI) medium (HyClone™) containing 10 bovine calf serum (BCS; Hyclone™) supplemented iron. The MV4-11 cells were seeded at 2×10^4 cells in 96-well culture plates, and serially diluted compound was then added. After a 72-hour incubation period at 37° C., cell viability was measured using the ATPLite 1 step assay (Perkin-Elmer™) that is based on the quantification of ATP from viable cells. CellTiter Aqueous assay (Promega™) was also performed in parallel as an orthogonal assay. IC50 values were calculated using nonlinear regression and defined as the concentration needed for a 50 reduction in luminescence or absorbance treated versus untreated control cells (Prism™ Software).

The target in test [4] is T1, FLT3 (Homo sapiens, UniProt P36888).
T1 construct: truncated human FAK, RET, FLT3, JAK2, and LRRK2; purchased Carna Biosciences
T1 sequence (P36888 564-993 limits assumed): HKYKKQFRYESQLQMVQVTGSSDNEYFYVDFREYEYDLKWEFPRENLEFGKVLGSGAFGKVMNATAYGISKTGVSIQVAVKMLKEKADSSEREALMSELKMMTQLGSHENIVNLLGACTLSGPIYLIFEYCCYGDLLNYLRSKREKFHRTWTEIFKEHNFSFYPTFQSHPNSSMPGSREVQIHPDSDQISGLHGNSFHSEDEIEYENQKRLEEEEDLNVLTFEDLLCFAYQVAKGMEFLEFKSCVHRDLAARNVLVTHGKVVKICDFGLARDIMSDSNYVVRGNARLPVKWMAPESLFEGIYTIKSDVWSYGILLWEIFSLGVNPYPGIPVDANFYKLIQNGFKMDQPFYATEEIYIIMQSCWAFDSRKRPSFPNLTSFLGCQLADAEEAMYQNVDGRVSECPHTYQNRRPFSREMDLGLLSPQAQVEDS
Put plainly: Kinase inhibition assay: FLT3. The class given is biochemical. The method, then: as §3, §4, §5

Test [5] concerns the target T2, RET (Homo sapiens, UniProt P07949).
T2 construct: truncated human FAK, RET, FLT3, JAK2, and LRRK2; purchased Carna Biosciences
T2 sequence (P07949 658-1114 limits assumed): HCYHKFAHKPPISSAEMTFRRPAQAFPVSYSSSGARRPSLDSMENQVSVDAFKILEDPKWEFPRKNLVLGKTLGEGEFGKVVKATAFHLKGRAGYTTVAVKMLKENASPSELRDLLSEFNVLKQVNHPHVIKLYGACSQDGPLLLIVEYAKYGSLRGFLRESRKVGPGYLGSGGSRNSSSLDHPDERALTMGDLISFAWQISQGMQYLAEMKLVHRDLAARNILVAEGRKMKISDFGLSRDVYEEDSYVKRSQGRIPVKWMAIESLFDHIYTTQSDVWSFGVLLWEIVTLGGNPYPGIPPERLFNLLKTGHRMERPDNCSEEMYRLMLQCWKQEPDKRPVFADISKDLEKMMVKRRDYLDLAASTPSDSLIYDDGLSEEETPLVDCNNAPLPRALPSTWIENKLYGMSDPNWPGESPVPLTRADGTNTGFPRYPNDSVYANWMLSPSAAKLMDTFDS
Kind of test: Kinase inhibition assay: RET. The format is biochemical. The method, then: as §3, §4, §5

Test [6] has as its system TNF-α release in THP-1 cells. Put plainly: SYK independent TNF-α release assay (LPS stimulation). The format is cell-based. To be noted: Homo sapiens, 18-hour incubation. As for the experimental part: as §1, §2
For SYK independent TNF-α release assay (i.e., via lipopolysaccharide (LPS)-stimulation), THP-1 cells derived from human monocytic cells were obtained from the American Type Culture Collection (ATCC, Manassas, Va.). This cell line was maintained with an RPMI medium (GIBCO™) containing 10 fetal bovine serum (FBS, GIBCO™) and 0.05 mM 2-mercaptoethanol. The THP-1 cells were seeded at 1×10^5 cells/100 μL/well into 96-well culture plates, and treated with lipopolysaccharide (1 μg/ml), and serially diluted compound was then added. After an 18-hour incubation period at 37° C., supernatants were collected for the determination of the TNF-α level by ELISA, and the remaining cells were subjected to an MTT assay to determine the cytotoxic effects.

In test [7] the target is T3, SYK (Homo sapiens, UniProt P43405).
T3 construct: Purified full-length human SYK, ZAP70, PIM1, PYK2; purchased Carna Biosciences
Kind of test: Kinase inhibition assay: SYK. The format is biochemical. The method, then:
as §3, §4, §5

Where [8] appears, read: THP-1 cells, IgG stimulation, 0.3 μM, 18-hour incubation.
Setting [9] is: THP-1 cells, IgG stimulation, 1 μM, 18-hour incubation.

The structures appear in SMILES notation. “Also recorded” adds a separate entry of the source.

JAK2, sequence (O60674 826-1132 limits assumed): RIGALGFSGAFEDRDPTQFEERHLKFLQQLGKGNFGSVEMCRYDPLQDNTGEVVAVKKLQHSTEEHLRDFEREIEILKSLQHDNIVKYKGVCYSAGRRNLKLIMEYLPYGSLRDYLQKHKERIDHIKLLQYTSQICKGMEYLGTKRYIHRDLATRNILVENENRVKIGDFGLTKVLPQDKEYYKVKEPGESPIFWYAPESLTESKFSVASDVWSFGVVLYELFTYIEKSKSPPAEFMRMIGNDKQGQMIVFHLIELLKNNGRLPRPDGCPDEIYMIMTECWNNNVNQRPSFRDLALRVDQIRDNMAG

With `COc1cc(Nc2ncc(F)c(Nc3ccc4c(n3)NC(=O)C(C)(C)O4)n2)cc(OC)c1OC` [Compound R406, R406, reference compound], in test [1] (setting [8]), the “TNF-α Release Inhibition, IgG stimulation, At 0.3 μM” value came out at 49.9%. Besides, the “TNF-α Release Inhibition, IgG stimulation, At 1 μM” value in test [1] (setting [9]) is listed as 87.4%.
A word on the IC50: it is the concentration needed to halve the response being measured. `COc1cc(Nc2ncc(C)c(-n3cc(C)c(CN4CC(OC(=O)C(C)(C)C)C4)c3)n2)cc(OC)c1OC` [Compound 93, 1-((4-methyl-1-(5-methyl-2-(3,4,5-trimethoxyphenylamino)pyrimidin-4-yl)-1H-pyrrol-3-yl)methyl)azetidin-3-yl pivalate]: the IC50 in test [2] is 219 nM; in test [3], 0.6 nM; in test [4] it was 11.7 nM; in test [5], 76.1 nM. In addition, in test [3] (FLT3 ITD induced cancer cell line (MV4-11)), the “inhibition level compared with Vandetinib and Sunitinib” value was “greater than those exhibited by Vandetinib and Sunitinib”.
One may read the inhibition as the drop in the measured response relative to a control, in per cent. A high value points to strong suppression. With `Cc1cc(C)cc(Nc2ncc(F)c(-n3ccc(CN4CC[C@@H](O)C4)c3)n2)c1` [Compound 133, (R)-1-((1-(2-(3,5-dimethylphenyl-amino)-5-fluoropyrimidin-4-yl)-1H-pyrrol-3-yl)methyl)pyrrolidin-3-ol], the values for the inhibition at 0.3 µM in test [6] and in test [1] (setting [8]) were 13.8% and 86.3%, respectively. The inhibition at 1 µM in test [6] came to 14.2%; in test [1] (setting [9]), 99.4%. In addition, the “percentage inhibition of TNF-α release compared with R406” value in test [1] (0.3 μM) is reported as “greater that those exhibited by R406; also recorded: greater percentage inhibition”.
Consider `CCN(CC)CCNC(=O)c1c(C)[nH]c(/C=C2\C(=O)Nc3ccc(F)cc32)c1C` [Sunitinib, reference compound], for which, in test [3], the IC50 turned out to be 3.8 nM.
Take `Cc1cc(C)cc(Nc2ncc(F)c(-n3cc(C)c(CN(C)C)c3)n2)c1` [Compound 80, 4-(3-((dimethylamino)methyl)-4-methyl-1H-pyrrol-1-yl)-N-(3,5-dimethylphenyl)-5-fluoropyrimidin-2-amine]: the inhibition at 0.3 µM in test [6] was determined as 8.2%; in test [1] (setting [8]), 51.5%. The inhibition at 1 µM turned out to be 12.5% in test [6] and 91.1% in test [1] (setting [9]).
Consider `Cc1cc(C)cc(Nc2ncc(F)c(-n3cc(CN(C)C)c(C)n3)n2)c1` [Compound 77, 4-(4-((dimethylamino)methyl)-3-methyl-1H-pyrazol-1-yl)-N-(3,5-dimethylphenyl)-5-fluoropyrimidin-2-amine], for which the inhibition at 0.3 µM in test [6] turned out to be 42.2%; in test [1] (setting [8]) it was 35.3%. The inhibition at 1 µM in test [6] turned out to be 36%; in test [1] (setting [9]), 69.5%.
Take `Cc1cc(C)cc(Nc2ncc(F)c(-n3ccc(CN(C)C)c3)n2)c1` [Compound 132, 4-(3-((dimethylamino)methyl)-1H-pyrrol-1-yl)-N-(3,5-dimethylphenyl)-5-fluoropyrimidin-2-amine]: the inhibition at 0.3 µM in test [6] worked out at 3.1%; in test [1] (setting [8]) it was 85.9%. The values for the inhibition at 1 µM in test [6] and in test [1] (setting [9]) were 8.2% and 94.5%, respectively. Also, the “percentage inhibition of TNF-α release compared with R406” value in test [1] (0.3 μM) was “greater that those exhibited by R406”.
For the molecule `C[C@@H]1C[C@H]2[C@@H]3CCC4=CC(=O)C=C[C@]4(C)[C@@]3(F)[C@@H](O)C[C@]2(C)[C@@]1(O)C(=O)CO` [Dexamethasone, reference compound], in test [6], 1 µM produced 68.4% inhibition.
In the case of `Cc1cn(-c2ccnc(Nc3ccc4c(ccn4C)c3)n2)cc1CN1CC(O)C1` [Compound 52, 1-((4-methyl-1-(2-(1-methyl-1H-indol-5-ylamino)pyrimidin-4-yl)-1H-pyrrol-3-yl)methyl)azetidin-3-ol], the IC50 in test [7] was found to be 3.5 nM.
For `Cc1cc(Nc2nccc(-n3cc(CN4CC[C@@H](O)C4)c(C)n3)n2)cc(C)c1OCCN1CCCC1` [Compound 46, (R)-1-((1-(2-(3,5-dimethyl-4-(2-(pyrrolidin-1-yl)ethoxy)phenyl-amino)pyrimidin-4-yl)-3-methyl-1H-pyrazol-4-yl)methyl)pyrrolidin-3-ol], inhibition in test [7] was half-maximal at 5.9 nM (IC50).
